# Assay results reported in patent publication US6653354B2, “NMDA antagonist comprising xenon” (priority 1999, dated 2003).
# Entries after “also recorded” stand apart in the source; their conditions may differ.
# How the values were obtained:
# [1] = system: GABAergic synapses (GABAA receptors) of hippocampal neurons; type: cell-based, rat
# Experimental: (§1) Hippocampal neurons were grown in culture using methods described previously (Segal M M et al, J. Neurophysiol. 1990, 64:1390-1399; Bekkers J M et al, Proc. Natl. Acad. Sci. U.S.A. 1991, 88:7834-7838; Mennerick S et al, J. Neurophysiol. 1995, 73:320-332). Briefly, hippocampi from Sprague Dawley rats (postnatal day 1-3) were dissected, roughly sliced and agitated in a papain-containing solution (20 units ml^−1) for 30 minutes at 37 EC. After washing with enzyme-free solution, the tissue was gently triturated with a fire-polished Pasteur pipette and the cells were plated out at a density of 8-10×10^4 cells ml^−1 and cultured (95% air/5% CO2) at 37° C. Glass coverslips used for culturing the cells were first coated with agarose (0.15% w/v) and then sprayed with a fine mist of poly-D-lysine (PDL) and collagen (0.1 mg ml^−1 PDL and 0.5 mg ml^−1 rat-tail collagen) from a glass micro-atomiser and sterilized by UV exposure. This produced micro-islands of permissive substrate with diameters of between 100 and 1000 μm. At 3-4 days after plating, when the glial cell layer was about 80% confluent, an anti-mitotic agent (cytosine β-D-arabinofuranoside, 5 μM) was added to arrest glial cell proliferation. Neuronal cultures were then allowed to mature for another 4-9 days. We used micro-islands which contained single isolated neurons whose axonal processes and dendritic trees formed multiple self-synapses (autapses). This procedure provided a large population of phenotypically identical monosynaptic connections.
# (§2) The neurons were voltage-clamped using the whole-cell recording technique (Axopatch 200 amplifier, Axon Instruments, Foster City, Calif.). Electrodes were fabricated from borosilicate glass and typically had resistances of between 3-5 MΩ. Series resistance was compensated by 75-90%. Neurons were voltage-clamped at −60 mV, and synaptic responses were stimulated by a 2 ms depolarising pulse to +20 mV. […] For the synaptic measurements, data were sampled at 50 kHz, filtered at 20 kHz (−3 dB, 8-pole Bessel) and stored on a computer. The extracellular recording solution was (mM) 137 NaCl, 5 KCl, 3 CaCl2, 5 HEPES, 10 glucose, 0.001 glycine, 0.0001 strychnine-HCl, titrated to pH 7.3 with NaOH; and the intracellular (pipette) solution was (mM) 140 KCl, 4 NaCl, 0.5 EGTA, 2 MgATP, 10 HEPES, titrated to pH 7.25 with KOH.
# (§3) Xenon solutions were prepared by first bubbling pure gases (oxygen, nitrogen or xenon) through fine sintered-glass bubblers in 250- or 500-ml Drechsel bottles filled with extracellular recording saline. […] (To minimise oxidization, the neurotoxins and neurotransmitters were excluded from the fully oxygenated saline.) During bubbling, the solutions were continually stirred at room temperature. These solutions were then mixed to achieve the desired final concentrations of the gases. Our control solutions usually contained 80% of the nitrogen solution and 20% of the oxygen solution, while our test solutions usually contained 80% of the xenon solution and 20% of the oxygen solution. Using a Bunsen water/gas partition coefficient of 0.0965 (Smith R A et al, Biochim. Biophys. Acta 1981, 645:327-338) we calculate that our standard test solution contained 3.4 mM xenon. Xenon (research grade, 99.993% pure) was supplied by BOC gases, Guildford, Surrey, UK. In all cases xenon was pre-applied to the neurons for at least 30 seconds before the initiation of synaptic currents.
# (§4) In order to obtain an estimate for the total charge transfer, the EPSCs or IPSCs were numerically integrated.
# [2] = system: glutamatergic synapses (NMDA receptor slow component, AMPA/KA receptor fast component) of hippocampal neurons; assay: Excitatory (glutamatergic) postsynaptic currents, voltage-clamped autaptic hippocampal neurons; type: cell-based, rat
# Experimental: as §1, §2, §3, §4
# [3] = system: co-culture injured by oxygen/glucose or oxygen deprivation; assay: Oxygen/glucose or oxygen deprivation injury in co-culture (LDH release); type: cell-based, mouse; conditions: 75 min replacement of O2 with N2; xenon replacing N2
# Experimental: Anoxia was performed on a co-culture by a 75 min replacement of O2 with N2. The xenon and N2 concentrations were changed reciprocally such that their aggregate was 95% of one atmosphere (5% CO2 in either group). After 24 h the culture medium was harvested and assayed for LDH. Data are expressed as the % mean±SD (n=3) of LDH released into the medium over the 24 h period normalised to LDH release when N2 alone is present.
# Dissociated murine cortical cell cultures were prepared using whole cerebral neocortices from fetal mice (14-17 days of gestation). Cortical glial cell cultures were prepared from early postnatal mice. After halting non-neuronal cell division with cytosine arabinoside the surviving cortical neuronal cells were plated onto the glial cell background and co-cultured.
# [4] = system: neurons of arcuate nucleus of hypothalamus; assay: NMA-induced neuron injury in the arcuate nucleus (neuroprotection in vivo); design: species or system Sprague Dawley female adult rats; conditions: 75% Xe + NMA 100 mg/kg s.c.
# Experimental: It can be seen that NMA caused neuronal degeneration and vacuoulated swelling in the neuropil giving a spongiform appearance in the arcuate nucleus (E). The degenerated neuron has a pyknotic nucleus, which look like “bulls' eyes” because of oedematous swelling of the cytoplasmic compartment.
# Rats were injected with NMA (100 mg/kg) sc and sacrificed 4 hours later after exposure to air (“NMA”; n=7) or xenon 75% (“75% xenon+NMA”; n=8). (For comparison the effect of MK801, the NMDA antagonist, is also shown). The arcuate nucleus was removed and sectioned and stained with cresyl violet. Control animals (“PS”; n=6) had neither NMA nor xenon administered. Data are reflected as either the mean of three sections/animal (upper) or the sum (lower) of degenerated neurons in both arcuate nuclei.
# [5] = system: rhesus monkeys; conditions: cited from earlier work
# [6] = cited from earlier work
# [7] = inhibitory currents + 3.4 mM xenon
# [8] = excitatory currents + 3.4 mM xenon
smiles,measurement,setting,value
[Xe] [xenon],effect on inhibitory (GABAergic) postsynaptic currents,[1]; 3.4 mM xenon,"negligible effects; also recorded: affected neither the peak value, nor the time course; also recorded: no significant effect"
same,Ipeak % change (means ± SEM),[1]; inhibitory currents + 3.4 mM (~1 MAC) xenon,−3.1 ± 2.2%
same,Decay half-time % change (means ± SEM),[1]; [7],−3.4 ± 2.4%
same,Ifast % change (means ± SEM),[1]; [7],−4.3 ± 2.8%
same,Islow % change (means ± SEM),[1]; [7],18.8 ± 12.4%
same,Qfast % change (means ± SEM),[1]; [7],1.5 ± 7.2%
same,Qslow % change (means ± SEM),[1]; [7],12.6 ± 8.4%
same,Total charge transfer % change (means ± SEM),[1]; [7],−2.3 ± 3.9%
same,τfast % change (means ± SEM),[1]; [7],−1.3 ± 3.5%
same,τslow % change (means ± SEM),[1]; [7],0.8 ± 6.0%
same,effect on the fast AMPA/KA receptor-mediated component,[2]; 3.4 mM (80%) xenon,barely changes; also recorded: only a small effect
same,effect on the glutamatergic (excitatory) synaptic current,[2]; 3.4 mM xenon,strongly depressed; also recorded: greatly depressed
same,Decay half-time % change (means ± SEM),[2]; [8],−22.7 ± 2.5%
same,Ifast % change (means ± SEM),[2]; [8],−4.1 ± 5.2%
same,Ipeak % change (means ± SEM),[2]; [8],−13.5 ± 1.8%
same,Islow % change (means ± SEM),[2]; [8],−70.3 ± 2.4%
same,Qfast % change (means ± SEM),[2]; [8],−11.4 ± 5.6%
same,Qslow % change (means ± SEM),[2]; [8],−68.2 ± 4.2%
same,Total charge transfer % change (means ± SEM),[2]; [8],−55.6 ± 2.7%
same,τfast % change (means ± SEM),[2]; [8],−12.3 ± 1.8%
same,τslow % change (means ± SEM),[2]; [8],−6.7 ± 6.5%
same,protection against injury induced by oxygen/glucose or oxygen alone deprivation (LDH release over 24 h),[3],dose-dependent protective effect
same,NMA-induced neuronal injury (cresyl fast violet histology),[4],effective in reducing this injury
same,gaseous concentration which prevents a response to a painful stimulus (MAC),[5],98 % atm
same,Ostwald water/gas partition coefficient,[6]; 37° C.,0.0887
same,Bunsen water/gas partition coefficient,[6]; room temperature,0.0965
